Data taken from patent US12187721B2, “Protein tyrosine phosphatase inhibitors” (Array BioPharma Inc., priority 2018, dated 2025).

Legend:
[1] = tested on: ERK1/2 (Thr202/Tyr204) phosphorylation in KYSE520 cells; test: Cellular Phospho-p44/42 MAPK (Erk 1/2) (Thr202/Tyr204) Assay (In-Cell Western); type: cell-based; conditions: Homo sapiens, KYSE-520, 1 h, read-out: Biological Example 2 IC50 (nM)
Description: KYSE520 cells were obtained from DSMZ and grown in RPMI supplemented with 10% fetal bovine serum, pennicillin/streptomycin, 2 mM L-alanyl-L-glutamine dipeptide in 0.85% NaCl (Glutamax™), non-essential amino acids, and sodium pyruvate. Cells were plated in 96-well plates at 30,000 cells/well and allowed to attach overnight at 37° C./5% CO2. Cells were treated with compounds prepared as a 10-point, 1:3 dilution series (range: 20 μM-1 nM), with a final DMSO concentration of 0.5%. After 1 hour incubation, cells were fixed in 3.7% formaldehyde in Dulbecco's phosphate-buffered saline (“dPBS”) at room temperature for 20 minutes. Cells were then washed with dPBS and permeabilized in 100% MeOH at room temperature for 10 minutes. Following permeabilization, cells were washed in dPBS and incubated in LI-COR Blocking Buffer (LI-COR Biosciences, Cat #927-40000) for 1 hour or longer. Plates were then incubated with an antibody specific for the MEK-dependent ERK1/2 phosphorylation sites, threonine 202 and tyrosine 204 (Cell Signaling Technologies; Cat #9101), downstream of SHP2 in the MAP kinase signal transduction pathway, as well as GAPDH (Millipore; Cat #MAB374). pErk1/2 (Thr202/Tyr204) antibody was diluted in LI-COR blocking buffer containing 0.05% polysorbate-20 (Tween-20) at 1:250; GAPDH was diluted at 1:2,500. The plates were incubated overnight at 4° C. After washing with PBS/0.05% Tween-20, the cells were incubated with fluorescently-labeled secondary antibodies (Anti-rabbit-Alexa Flour680, Invitrogen Cat #A21109; Anti-mouse-IRDye800CW, Li-cor Bioscieces Cat #926-32210, both at 1:1000 dilution) for 1 hour. Cells were then washed, as above, and analyzed for fluorescence at both 680 nm and 800 nm wavelengths using the Aerius Infrared Imaging System (LI-COR Biosciences, Model 9250). Phosphorylated Erk1/2 (Thr202/Tyr204) signal was normalized to GAPDH signal for each well. IC50 values were calculated from the normalized values using a 4-parameter fit in BioAssay software. […] The reported IC50 in Table 2 may be from a single assay or the mean of multiple assays.

[2] = target: T1, full-length SHP2 (His6-tagged SHP2(2-527)) (Homo sapiens, UniProt Q06124); test: SHP2 Enzymatic Assay (fluorescence intensity kinetic assay, DiFMUP hydrolysis); type: biochemical
T1 construct: His6-tagged SHP2(2-527); His6; made in house; host or cells: E. coli
T1 sequence (Q06124 2-527): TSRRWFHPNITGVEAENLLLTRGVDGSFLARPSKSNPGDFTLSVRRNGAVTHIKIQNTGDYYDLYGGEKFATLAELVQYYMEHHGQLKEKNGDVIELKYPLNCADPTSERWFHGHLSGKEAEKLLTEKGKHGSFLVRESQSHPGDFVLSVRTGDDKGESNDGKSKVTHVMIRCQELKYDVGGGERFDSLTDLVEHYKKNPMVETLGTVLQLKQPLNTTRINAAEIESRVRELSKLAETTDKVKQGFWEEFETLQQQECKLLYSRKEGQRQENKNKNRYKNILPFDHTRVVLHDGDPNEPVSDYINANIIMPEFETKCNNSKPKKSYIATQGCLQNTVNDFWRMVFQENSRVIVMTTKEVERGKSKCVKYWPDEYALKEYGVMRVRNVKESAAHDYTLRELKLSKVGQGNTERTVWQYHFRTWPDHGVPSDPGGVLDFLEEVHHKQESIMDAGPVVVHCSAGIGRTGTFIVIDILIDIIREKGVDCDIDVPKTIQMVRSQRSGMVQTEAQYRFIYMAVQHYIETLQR
Summary of the method: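 1 nM His6-SHP2(2-527), activated by 1 μM bis-phosphopeptide, hydrolysed 50 μM DiFMUP in 25 mM HEPES pH 7.4 with 1 mM DTT, 50 mM KCl and 2% DMSO. DiFMU fluorescence (Ex 355/Em 460 nm) was read kinetically for 15 min at ambient temperature.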

## N[C@@H]1c2cccnc2CC12CCN(c1cnc3nc(Sc4ccnc(N5CC[C@H](CO)C5)c4Cl)ccc3n1)CC2 [Example 210, ((S)-1-(4-((2-((S)-5-amino-5,7-dihydrospiro[cyclopenta[b]pyridine-6,4′-piperidin]-1′-yl)pyrido[2,3-b]pyrazin-6-yl)thio)-3-chloropyridin-2-yl)pyrrolidin-3-yl)methanol]
[1]
  IC50: 16 nM
[2]
  IC50: 63 nM
